The values below are quoted from earlier work in US20240238347A1, “PHOTORECEPTOR CELLS FOR RETINAL AND MACULAR REPAIR” (The Johns Hopkins University, priority 2021, published 2024).

Data set [1] relates to human retinal organoids.
In data set [2] the test system is Thrβ mutant organoids. Particulars: Thrβ KO+T3; early T3 addition.
For data set [3], the system named is ESC- and iPSC-derived organoids.
Data set [4] has as its system WERI-Rb1 retinoblastoma cells. Particulars: retinoblastoma cell line treated with T3.
[5] abbreviates: 'Early RA': 1.0 μM RA from days 43 to 130.
Setting [6] is: 'Late RA': 1.0 μM RA from days 130 to 200.
The mark [7] stands for this setting: wild type+T3, 20 nM T3 starting from days 20 to 50 until day 200 of differentiation.

Read-outs that look alike come from different tables or passages of the source.

For `CC1=C(/C=C/C(C)=C/C=C/C(C)=C/C(=O)O)C(C)(C)CCC1` [RA, all-trans retinoic acid], in data set [1] (setting [5]), the “L cones at day 200” value was 1.65%, the “M cones at day 200” value is reported as 98.35% and the “co-expressing cones at day 200” value is on record as 0%. In data set [1] (setting [6]), the “L cones at day 200” value was 92.56%, the “M cones at day 200” value is reported as 6.35% and the “co-expressing cones at day 200” value is 1.10%. Further, in data set [1] (ESC-derived organoids grown in 'Early RA' conditions), the “M-opsin and L-opsin expression (RNA-seq)” value was “high M-opsin and minimal L-opsin expression”. Further, the “overall M/L cone densities at day 200” value in data set [1] (across experimental conditions (No RA, Early RA, Late RA)) was “no significant differences”. For the same compound, in data set [1] (iPSC-derived organoids grown in 'Early RA' conditions), the “M-opsin expression (previously published RNA-seq data)” value is “near exclusive expression of M-opsin”. Also, the “organoid differentiation / M or L cone yield” value in data set [1] (supplemental RA throughout development (N=6)) was “failed to differentiate, yielding minimal M or L cones”.
In the case of `N[C@@H](Cc1cc(I)c(Oc2ccc(O)c(I)c2)c(I)c1)C(=O)O` [T3, triiodothyronine], in data set [2], the “L/M cones, share of cones” value was 0% and the “S cones, share of cones” value is 100%. In data set [3] (early T3 addition in organoids), the cone density entry is listed as “dramatically increased cone density”. In data set [3] (setting [7]), the “L/M cones (L/M-opsin expressing), share of cones” value is reported as 96% and the “S cones (S-opsin expressing), share of cones” value is given as 4%. Also, in data set [4], the L/M-opsin expression entry is “expresses L/M-opsin”.
